Holding throughout (assay type): cell-based
One assay relates to T cells (total number). In words: Total T cell number after CD3/CD28 stimulation of human PBMCs for 4 days, flow cytometry. Particulars: hLA212_H4/L2 10 μg/mL, tacrolimus 10 nM, dexamethasone 1 μM, PBMCs of two donors. Here is the method: (§1) PBMCs were separated from human peripheral blood by Ficoll centrifugation and added to a 96-well U-bottom microplate in an amount of 4×10^5 cells/well. Human IL-2 (PeproTech, Inc., final concentration: 100 ng/mL) and Dynabeads Human T-Activator CD3/CD28 (Life Technologies Corp., 4×105 beads/well) were added thereto, and T cells were activated by culture for 4 days. The obtained cells were recovered, suspended in a FACS buffer (PBS, 0.1% BSA, and 0.1% sodium azide), and then reacted with Human BD Fc Block (Becton, Dickinson and Company) at room temperature for 10 minutes. Subsequently, the cell surface was stained by reaction at 4° C. for 30 minutes with fluorescently labeled antibodies diluted with a FACS buffer containing a LIVE/DEAD Fixable Dead Cell Stain Kit-near-IR fluorescent reactive dye (manufactured by Invitrogen Corp.), followed by washing with a FACS buffer. […] The data was analyzed using FlowJo (manufactured by Tree Star Inc). After removal of the LIVE/DEAD Fixable Dead Cell Stain Kit-near-IR fluorescent reactive dye-positive dead cells by gating, only the living cells were analyzed by further gating CD3 positive and CD8 positive CD8 T cells. […]
(In general: Flow cytometry measures light scatter and fluorescence of single cells or particles in a stream.)

A further assay deals with CD57 positive T cells. The experiment in a line: CD57 positive T cell number after CD3/CD28 stimulation of human PBMCs for 4 days, flow cytometry. Particulars: tacrolimus 10 nM, dexamethasone 1 μM, two donors. On the procedure:
(§2) PBMCs were separated from human peripheral blood by Ficoll centrifugation and added to a 96-well U-bottom microplate in an amount of 4×10^5 cells/well. Human IL-2 (PeproTech, Inc., final concentration: 100 ng/mL) and Dynabeads Human T-Activator CD3/CD28 (Life Technologies Corp., 4×105 beads/well) were added thereto, and T cells were activated by culture for 4 days. The obtained cells were recovered, suspended in a FACS buffer (PBS, 0.1% BSA, and 0.1% sodium azide), and then reacted with Human BD Fc Block (Becton, Dickinson and Company) at room temperature for 10 minutes. […] The data was analyzed using FlowJo (manufactured by Tree Star Inc). After removal of the LIVE/DEAD Fixable Dead Cell Stain Kit-near-IR fluorescent reactive dye-positive dead cells by gating, only the living cells were analyzed by further gating CD3 positive and CD8 positive CD8 T cells.
(§3) The effect of the humanized anti-human LAG-3 antibody hLA212_H4/L2, the calcineurin inhibitor tacrolimus, and the corticosteroid dexamethasone on CD28 negative T cells and CD57 positive T cells was investigated in the assay system of Example 13. […] Out of the living cells, a CD3 positive and CD8 negative fraction and a CD3 positive and CD8 positive fraction were analyzed as CD4 T cells and CD8 T cells, respectively.

The subject of the next assay is CD28 negative T cells. In words: CD28 negative T cell number after CD3/CD28 stimulation of human PBMCs for 4 days, flow cytometry. Particulars: tacrolimus 10 nM, dexamethasone 1 μM, two donors. Here is the method: as §2, §3
The test system of assay [1] is perforin positive CD8 T cells. The experiment in a line: Perforin positive CD8 T cell number after CD3/CD28 stimulation of human PBMCs for 4 days, flow cytometry. The note with it: hLA212_H4/L2 10 μg/mL, tacrolimus 10 nM, PBMCs of two donors. On the procedure:
as §1

Setting [2] is: hLA212_H4/L2 10, 1, 0.1 μg/mL (effect concentration dependent).

On to `C=CC[C@@H]1/C=C(\C)C[C@H](C)C[C@H](OC)[C@H]2O[C@@](O)(C(=O)C(=O)N3CCCC[C@H]3C(=O)O[C@H](/C(C)=C/[C@@H]3CC[C@@H](O)[C@H](OC)C3)[C@H](C)[C@@H](O)CC1=O)[C@H](C)C[C@@H]2OC` [tacrolimus, reference compound], for which the “total number of T cells after culture, compared with the control” value in the assay with T cells (total number) is “slightly reduced”. Further, the “number of CD57 positive CD8 T cells” value with CD57 positive T cells (setting [2]) is recorded as “evident reduction in the number of CD57 positive CD8 T cells as found for the LAG-3 antibody was not observed”. Also, the “number of CD57 positive CD4 T cells” value in the assay on CD57 positive T cells (hLA212_H4/L2 10, 1, 0.1 μg/mL) was “such an effect was hardly observed”. The “number of CD28 negative CD8 T cells” value in the assay on CD28 negative T cells (setting [2]) is reported as “evident reduction in the number of CD28 negative CD8 T cells as found for the LAG-3 antibody was not observed”. The “number of CD28 negative CD4 T cells” value with CD28 negative T cells (hLA212_H4/L2 10, 1, 0.1 μg/mL) is given as “hardly effective or rather increased the cell number”. Besides, in assay [1], the “number of perforin positive CD8 T cells, compared with the control” value was “rarely different from those of the control”.

Source of the values: patent publication US12145987B2, “Method for depleting cytotoxic T cells using an anti-LAG-3 antibody composition” (Daiichi Sankyo Company, Limited, priority 2017, dated 2024).
